Laboratory results published in patent publication US4060526A, “1-Heterocyclic alkyl-1,2,3,4-tetrahydroquinazolinones and analgesic intermediates thereof” (priority 1976, dated 1977).
Like-named read-outs stand apart in the source and are kept apart here.

Tests used:
in vivo [1] = conditions: for LD50 at 48 h: read-out: LD50 (48 hr); for LD50 / selectivity ratio: mouse
acute toxicity, rat = conditions: in vivo, sc; Rat s.c.; preliminary result
Description: (§1) Compounds were administered in 2% clearjel as a suspension except in
(§2) Toxicities have only been run with male animals to date.

acute toxicity, cat = conditions: in vivo
Description: as §1, §2

[2] = phenylbenzoquinone writhing test, mouse; assay type: in vivo; conditions: mouse, in vivo
Description: (§7) In addition to the hot plate method, the writhing test described by Sigmund et al., Soc. Exp. Biol. and Med. 95:729 (1957) has been applied in both rats and mice as further indication of analgesics. […] The stimulus of intraperitoneal injection of phenylbenzoquinone results in a writhing syndrome characterized by periodic twisting and stretching of the body with extension of the hind legs. […] The dose of compound protecting 50% of the animals is determined and expressed as the ED50. Ten animals are used at each dose level.

[3] = system: phenylbenzoquinone writhing; assay: phenylbenzoquinone writhing test, mouse; assay type: in vivo
Description: as §7

[4] = phenylbenzoquinone writhing test, rat; assay type: in vivo; conditions: rat, in vivo
From the text: (§3) […]. […] Ten animals are used at each dose level.

[5] = system: phenylbenzoquinone writhing; assay: phenylbenzoquinone writhing test, rat; assay type: in vivo
From the text: as §3

heat stimulus [6] = assay: D'Amour Smith Rat Tail Flick; assay type: in vivo; conditions: Rattus norvegicus
From the text: (§4) In the original method the time required for rats to flick their tails following application of a heat stimulus is taken as a measure of analgesic potency.

[7] = system: isolated guinea pig ileum (Acetylcholine); assay: isolated guinea pig ileum screen, block of acetylcholine
[8] = system: isolated guinea pig ileum (Histamine); assay: isolated guinea pig ileum screen, block of histamine (antihistaminic); conditions: for Amount to produce a 50% block of Histamine: isolated guinea pig ileum, 37° C.; for antihistaminic activity compared with diphenhydramine: words
From the text: Contractions were elicited by histamine phosphate. The concentration of compound required to block these contractions when added to the tissue bath prior to introduction of histamine is taken as evidence of antihistaminic action.

[9] = system: pinna reflex, corneal reflex; assay: pinna / corneal reflex test (Witkin et al.), tranquilizer activity; assay type: in vivo, mouse; conditions: for ratio of ED50 corneal/ED50 pinna: mouse, exceeding unity = tranquilizer type action; for tranquilizer classification from corneal/pinna ratio: words
From the text: (§5) A tranquil sedation has been observed in mice, rats, cats and monkeys following administration of these compounds in doses exceeding those that are required for analgesia. In addition further indirect evidence for tranquilizer activity has been obtained by application of a method described by Witkin et al., J. Pharmacol, and Exp. Ther. 126:330 (1959)
This test is based upon observations that the pinna reflex of the mouse is blocked at relatively low doses of major tranquilizer drugs whereas very high doses are needed to block the corneal reflex. A ratio of ED50 corneal/ED50 pinna exceeding unity is taken as evidence of tranquilizer type action. […].

[10] = system: oxymorphone induced mydriasis; assay: antagonism of oxymorphone induced mydriasis; assay type: in vivo, mice; conditions: words
Description: (§6) The compounds of this invention were tested for their ability to antagonize narcotic analgesics by two different tests. […] Another test used for narcotic antagonist activity was published by Harris & Pearson. This test is modification of the D'Amour & Smith method.

morphine analgesia = assay: antagonism of morphine analgesia (Harris & Pearson, modified D'Amour & Smith); assay type: in vivo; conditions: rats; words
Description: as §6, §4

[11] = hypothermic effect, rectal temperature; assay type: in vivo; conditions: mice; words
Description: Rectal temperatures were recorded periodically in mice following administration of 740-222 by oral route.

[12] = system: metrazol induced convulsions; assay: anticonvulsant activity, pentylenetetrazol (Metrazol) convulsions; assay type: in vivo; conditions: mice, words
intestinal motility = assay: gastrointestinal motility suppression (Brittain & Collier, modified), charcoal; assay type: in vivo; conditions: mice, words
in vivo [13] = assay: in vivo; design: species or system mice, rats, cats and monkeys
From the text: as §5

[14] = analgesic activity and general pharmacology, conventional testing methods; assay type: in vivo; conditions: words
From the text: Ten animals are used for each dose level.
Ten animals are used at each dose level.

solubility = assay type: physicochemical; conditions: words
in vivo [15] = conditions: mouse
[16] = mouse hot plate test (Eddy and Leimbach, modified); conditions: mouse, in vivo, LD50 /ED50 H.P.
heat stimulus [17] = assay: mouse hot plate test (Eddy and Leimbach, modified); conditions: for ED50: Mus musculus, read-out: Hot Plate ED50
NARCOTIC ANTAGONISM = assay: narcotic antagonism (Table IV); assay type: in vivo; conditions: I.P.
Description: as §6, §4

in vivo [18] = conditions: ip
[19] = ip, Cat i.p., preliminary result (740-222)
[20] = po, Mouse p.o., read-out: LD50 /ED50 Writhing

## NC(=O)c1ccccc1NCCN1CCN(c2ccccc2)CC1 [Example 730-372A, 2-[2-(4-[1-Phenyl]piperazinyl)ethylamino]-benzamide]
In vivo [1]; ip, Mouse i.p.
  LD50 at 48 h: > 1000 mg/kg
In vivo [1]; iv, Mouse i.v., solution (5mg/ml) in distilled water
  LD50 at 48 h: 50 mg/kg
In vivo [1]; po, Mouse p.o.
  LD50 at 48 h: > 1000 mg/kg
In vivo [1]; sc, Mouse s.c.
  LD50 at 48 h: > 1000 mg/kg
Acute toxicity, rat
  LD50 at 48 h: > 1000 mg/kg
Acute toxicity, cat; [19]
  LD50 at 48 h: > 1000 mg/kg

## O=C1NC(c2ccccc2)N(CCN2CCN(c3ccccc3)CC2)c2ccccc21 (stereo not shown) [Example II, 1-[2-(1-Phenyl-4-piperazinyl)ethyl]-2-phenyl-1,2,3,4-tetrahydro-4-quinazolinone]
[2]; po
  selectivity ratio: 9
[2]; [20]
  selectivity ratio: > 91
[3]; mice
  activity relative to morphine, writhing test: approximately one third
[3]; po, Mouse p.o.
  ED50: 11 mg/kg
[4]; po
  selectivity ratio: 7.1
[4]; po, Rat p.o., read-out: LD50 /ED50 Writhing
  selectivity ratio: 71
[5]; Rattus norvegicus, rats, oral, read-out: dose at which writhing syndrome is 50% blocked
  ED50: 10 mg/kg
[5]; po, Rat p.o., read-out: Writhing ED50
  ED50: 14 mg/kg
Heat stimulus [6]; po, read-out: D'Amour Smith Rat Tail Flick ED50
  ED50: > 100 mg/kg
In vivo [1]; ip, Mouse i.p.
  LD50 at 48 h: > 2500 mg/kg
In vivo [1]; mice, all routes tested, read-out: acute toxicity
  LD50: > 1000 mg/kg
In vivo [1]; oral route, read-out: therapeutic index (lethal dose to effective dose)
  selectivity ratio: > 300
In vivo [1]; po, Mouse p.o.
  LD50 at 48 h: > 10000 mg/kg
In vivo [1]; sc, Mouse s.c.
  LD50 at 48 h: > 1000 mg/kg
Acute toxicity, rat
  LD50 at 48 h: > 1000 mg/kg
Acute toxicity, cat; [19]
  LD50 at 48 h: > 1000 mg/kg
Acute toxicity, cat; po, Cat p.o., preliminary result
  LD50 at 48 h: > 1000 mg/kg
[7]
  Amount to produce a 50% block of Acetylcholine: 1000 micrograms
[8]
  Amount to produce a 50% block of Histamine: 0.5 micrograms
  antihistaminic activity compared with diphenhydramine: about the same activity as the standard antihistaminic diphenhydramine
[9]
  ratio of ED50 corneal/ED50 pinna: greater than 10
  tranquilizer classification from corneal/pinna ratio: classified as possessing tranquilizer activity
[10]
  antagonism of oxymorphone induced mydriasis: slight antagonism of oxymorphone induced mydriasis in mice by the intraperiteneal route only
Morphine analgesia
  antagonism of morphine analgesia: not effective by the subcutaneous route
[11]
  hypothermic effect: effectively reduced body temperature in normal mice
[12]; oral
  antagonism of metrazol induced convulsions: able to antagonize these metrazol induced convulsions in mice
Intestinal motility
  suppression of intestinal motility: effective in suppressing intestinal motility in mice
Intestinal motility; listed as 740-222
  suppression of intestinal motility: reduces gut motility
In vivo [13]
  selectivity ratio: ~10
[14]
  oral versus parenteral analgesic activity: more active by the oral than the parenteral route
solubility
  solubility: low solubility
In vivo [15]; ip
  selectivity ratio: 3.4
In vivo [15]; po
  selectivity ratio: 5
[16]; ip, Mouse i.p.
  selectivity ratio: > 17
[16]; po, Mouse p.o.
  selectivity ratio: > 50
Heat stimulus [17]; ip
  ED50: 52 mg/kg
Heat stimulus [17]; po
  ED50: 20 mg/kg
Heat stimulus [17]; sc
  ED50: > 562 mg/kg
Heat stimulus [17]; mice, oral, words
  analgesic activity compared with codeine, hot plate: of the same order as codeine
  analgesic activity compared with morphine, hot plate: slightly less than morphine

## NC(=O)c1ccccc1NCCN1CCN(c2ccccc2)CC1 [Example I, 2-[2-(4-[1-Phenyl]piperazinyl)ethylamino]-benzamide]
[2]; po
  selectivity ratio: 1.9
[2]; [20]
  selectivity ratio: > 340
[2]; sc
  selectivity ratio: 6.3
[2]; sc, Mouse s.c., read-out: LD50 /ED50 Writhing
  selectivity ratio: > 620
[3]; po, Mouse p.o.
  ED50: 2.9 mg/kg
[3]; sc, Mouse s.c.
  ED50: 1.6 mg/kg
[4]
  selectivity ratio: 2
[4]; Rat Sub. cut, read-out: LD50 /ED50 Writhing
  selectivity ratio: 400
[5]; sc, Rat Sub. cut, read-out: Writhing ED50
  ED50: 2.5 mg/kg
Heat stimulus [6]; sc, Sub. cut., read-out: Rat Tail Flick ED50
  ED50: > 18 mg/kg
In vivo [1]
  selectivity ratio: > 300
In vivo [1]; read-out: acute toxicity (LD50)
  LD50: 800 to 1000 mg/kg
[7]
  Amount to produce a 50% block of Acetylcholine: 126 micrograms
[8]
  Amount to produce a 50% block of Histamine: 0.8 micrograms
  antihistaminic activity compared with diphenhydramine: about half as active as the standard
[9]
  ratio of ED50 corneal/ED50 pinna: approximately 0.5
  tranquilizer classification from corneal/pinna ratio: within the range of ratios expected with sedatives (0.3 to 0.7)
[10]
  antagonism of oxymorphone induced mydriasis: effective in antagonizing oxymorphone induced mydriasis
Morphine analgesia
  antagonism of morphine analgesia: at lower dose levels antagonism of morphine analgesia was observed in rats
[11]
  hypothermic effect: also effective in this respect
[12]; subcutaneous
  antagonism of metrazol induced convulsions: not effective by the subcutaneous route
Intestinal motility
  suppression of intestinal motility: less important
NARCOTIC ANTAGONISM
  NARCOTIC ANTAGONISM: Positive
[14]
  analgesic activity compared with morphine, hot plate and writhing tests: approximately equivalent to or slightly more active than morphine
  oral versus parenteral analgesic activity: more active by the parenteral routes than by the oral route
In vivo [15]; ip
  selectivity ratio: 1.2
In vivo [15]; po
  selectivity ratio: 1.9
In vivo [15]; sc
  selectivity ratio: 2.4
In vivo [18]
  LD50: 800 mg/kg
  NOAEL: 2 mg/kg
[16]; ip, Mouse i.p.
  selectivity ratio: 670
[16]; po, Mouse p.o.
  selectivity ratio: > 330
[16]; sc, Mouse s.c.
  selectivity ratio: > 240
Heat stimulus [17]; ip
  ED50: 1.5 mg/kg
Heat stimulus [17]; po
  ED50: 3 mg/kg
Heat stimulus [17]; sc
  ED50: 4.1 mg/kg
